Experimental data taken from BindingDB's records for PubMed 2547939 (Abbott Laboratories, 1989).
pKi: −log10 of the molar value.

Tests used:
[1] = target: T1, Muscarinic acetylcholine receptor M1 (Rattus norvegicus, UniProt P08482)
T1 sequence (P08482 whole entry): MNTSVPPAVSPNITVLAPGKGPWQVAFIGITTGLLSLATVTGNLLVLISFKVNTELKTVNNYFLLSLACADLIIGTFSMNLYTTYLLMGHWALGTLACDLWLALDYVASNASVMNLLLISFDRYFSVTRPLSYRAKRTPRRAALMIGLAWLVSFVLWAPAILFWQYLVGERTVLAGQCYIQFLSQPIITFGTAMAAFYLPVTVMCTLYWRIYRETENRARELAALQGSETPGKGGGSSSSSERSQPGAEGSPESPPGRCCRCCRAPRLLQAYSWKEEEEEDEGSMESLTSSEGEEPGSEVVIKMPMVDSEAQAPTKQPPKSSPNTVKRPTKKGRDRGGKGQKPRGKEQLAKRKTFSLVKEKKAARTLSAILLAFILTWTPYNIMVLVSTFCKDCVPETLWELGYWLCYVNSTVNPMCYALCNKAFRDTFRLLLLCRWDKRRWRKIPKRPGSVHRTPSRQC

[2] = target: T2, Muscarinic acetylcholine receptor M2 (Rattus norvegicus, UniProt P10980)
T2 sequence (P10980 whole entry): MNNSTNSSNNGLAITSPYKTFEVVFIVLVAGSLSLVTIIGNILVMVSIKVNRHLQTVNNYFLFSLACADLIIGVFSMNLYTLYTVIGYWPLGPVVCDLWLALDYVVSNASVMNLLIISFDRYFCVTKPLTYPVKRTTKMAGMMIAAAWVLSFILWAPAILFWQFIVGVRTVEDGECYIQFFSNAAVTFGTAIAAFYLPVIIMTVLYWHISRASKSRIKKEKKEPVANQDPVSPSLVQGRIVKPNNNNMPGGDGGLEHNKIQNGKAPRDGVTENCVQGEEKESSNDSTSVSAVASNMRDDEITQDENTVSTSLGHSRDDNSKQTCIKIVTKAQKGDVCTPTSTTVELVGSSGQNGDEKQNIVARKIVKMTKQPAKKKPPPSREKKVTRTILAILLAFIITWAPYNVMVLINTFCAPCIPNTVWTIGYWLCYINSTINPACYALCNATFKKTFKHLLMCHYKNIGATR

pKi [2]	Structure (SMILES)	pKi [1]
7.47	CCN(CC)CC1CCCCN1CC(=O)N1c2ccccc2C(=O)Nc2cccnc21 (stereo not drawn) [(AF-DX 116) 11-[2-(2-Diethylaminomethyl-piperidin-1-yl)-acetyl]-5,11-dihydro-benzo[e]pyrido[3,2-b][1,4]diazepin-6-one]	6.74
	O[Si](CCCN1CCCCC1)(c1ccccc1)C1CCCCC1 (stereo not drawn) [HHSiD]	7.83
